From patent US5852210A, “Cinnamic acid derivatives” (G. D. Searle & Co., priority 1997, dated 1998)
pIC50: −log10 of the molar value. Structures can show the parent of a compound that is named as a salt. Where two headings read alike, the source gives them in different places.

Legend:
[1] = target: T1, Human vitronectin receptor (αv β3) (Homo sapiens, UniProt P05106+P06756); assay: Vitronectin adhesion assay (solid phase receptor assay, αvβ3); format: binding
T1 construct: Human vitronectin receptor (αv β3) was purified from human placenta; from tissue; host or cells: human placenta
Procedure: (§1) The activity of the compounds of the present invention was tested in the following assays.
Human vitronectin receptor (αv β3) was purified from human placenta as previously described [Pytela et al., Methods in Enzymology, 144:475-489 (1987)]. Human vitronectin was purified from fresh frozen plasma as previously described [Yatohgo et al., Cell Structure and Function, 13:281-292 (1988)]. Biotinylated human vitronectin was prepared by coupling NHS-biotin from Pierce Chemical Company (Rockford, Ill.) to purified vitronectin as previously described [Charo et al., J. Biol. Chem., 266(3):1415-1421 (1991)]. Assay buffer, OPD substrate tablets, and RIA grade BSA were obtained from Sigma (St. Louis, Mo.). Anti-biotin antibody was obtained from Calbiochem (La Jolla, Calif.). Linbro microtiter plates were obtained from Flow Labs (McLean, Va.). ADP reagent was obtained from Sigma (St. Louis, Mo.).
(§2) Solid Phase Receptor Assays
This assay was essentially the same as previously reported [Niiya et al., Blood, 70:475-483 (1987)]. The purified human vitronectin receptor (αv β3) was diluted from stock solutions to […] in Tris-buffered saline containing 1.0 mM Ca^++, Mg^++, and Mn^++, pH 7.4 (TBS^+++). The diluted receptor was immediately transferred to Linbro microtiter plates at 100 μL/well (100 ng receptor/well). The plates were sealed and incubated overnight at 4° C. to allow the receptor to bind to the wells. All remaining steps were at room temperature. The assay plates were emptied and 200 μL, of 1% RIA grade BSA in TBS^+++ (TBS^+++ /BSA) were added to block exposed plastic surfaces. Following a 2 hour incubation, the assay plates were washed with TBS^+++ using a 96 well plate washer. Logarithmic serial dilution of the test compound and controls were made starting at a stock concentration of 2 mM and using 2 nM biotinylated vitronectin in TBS^+++ /BSA as the diluent. This premixing of labeled ligand with test (or control) ligand, and subsequent transfer of 50 μL aliquots to the assay plate was carried out with a CETUS Propette robot; the final concentration of the labeled ligand was 1 nM and the highest concentration of test compound was 1.0×10^-4 M. The competition occurred for two hours after which all wells were washed with a plate washer as before. Affinity purified horseradish peroxidase labeled goat anti-biotin antibody was diluted 1:3000 in TBS^+++ /BSA and 125 μL were added to each well. After 30 minutes, the plates were washed and incubated with OPD/H2 O2 substrate in 100 mM/L Citrate buffer, pH 5.0. The plate was read with a microtiter plate reader at a wavelength of 450 nm and when the maximum-binding control wells reached an absorbance of about 1.0, the final A450 were recorded for analysis. The data were analyzed using a macro written for use with the EXCEL™ spreadsheet program. The mean, standard deviation, and % CV were determined for duplicate concentrations. The mean A450 values were normalized to the mean of four maximum-binding controls (no competitor added) (B-MAX). The normalized values were subjected to a four parameter curve fit algorithm [Rodbard et al., Int.

[2] = target: T2, Human fibrinogen receptor (αIIb β3) (Homo sapiens, UniProt P05106+P08514); assay: Purified IIb/IIIa receptor assay (solid phase receptor assay); settings: inhibition of binding of biotinylated human vitronectin (1 nM) to purified receptor; Table I
T2 construct: Human fibrinogen receptor (αIIb β3) was purified from outdated platelets; from tissue; host or cells: human outdated platelets
Procedure: as §1
Human fibrinogen receptor (αIIb β3) was purified from outdated platelets. (Pytela, R., Pierschbacher, M. D., Argraves, S., Suzuki, S., and Rouslahti, E. "Arginine-Glycine-Aspartic acid adhesion receptors", Methods in Enzymology 144(1987):475-489.) Human vitronectin was purified from fresh frozen plasma as described in Yatohgo, T., Izumi, M., Kashiwagi, H., and Hayashi, M., "Novel purification of vitronectin from human plasma by heparin affinity chromatography," Cell Structure and Function 13(1988):281-292. Biotinylated human vitronectin was prepared by coupling NHS-biotin from Pierce Chemical Company (Rockford, Ill.) to purified vitronectin as previously described. (Charo, I. F., Nannizzi, L., Phillips, D. R., Hsu, M. A., Scarborough, R. M., "Inhibition of fibrinogen binding to GP IIb/IIIa by a GP IIIa peptide", J. Biol. Chem. 266(3) (1991): 1415-1421.) Assay buffer, OPD substrate tablets, and RIA grade BSA were obtained from Sigma (St. Louis, Mo.). Anti-biotin antibody was obtained from Calbiochem (La Jolla, Calif.). Linbro microtiter plates were obtained from Flow Labs (McLean, Va.). ADP reagent was obtained from Sigma (St. Louis, Mo.).
as §2
This assay is essentially the same reported in Niiya, K., Hodson, E., Bader, R., Byers-Ward, V. Koziol, J. A., Plow, E. F. and Ruggeri, Z. M., "Increased surface expression of the membrane glycoprotein IIb/IIIa complex induced by platelet activation: Relationships to the binding of fibrinogen and platelet aggregation", Blood 70 (1987):475-483. The purified human fibrinogen receptor (αIIb β3) was diluted from stock solutions to 1.0 μg/mL in Tris-buffered saline containing 1.0 mM Ca^++, Mg^++, and Mn^++, pH 7.4 (TBS^+++). The diluted receptor was immediately transferred to Linbro microtiter plates at 100 μL/well (100 ng receptor/well). The plates were sealed and incubated overnight at 4° C. to allow the receptor to bind to the wells. All remaining steps were at room temperature. The assay plates were emptied and 200 μL of 1% RIA grade BSA in TBS^+++ (TBS^+++ /BSA) were added to block exposed plastic surfaces. Following a 2 hour incubation, the assay plates were washed with TBS^+++ using a 96 well plate washer. Logarithmic serial dilution of the test compound and controls were made starting at a stock concentration of 2 mM and using 2 nM biotinylated vitronectin in TBS^+++ /BSA as the diluent. This premixing of labeled ligand with test (or control) ligand, and subsequent transfer of 50 μL aliquots to the assay plate was carried out with a CETUS Propette robot; the final concentration of the labeled ligand was 1 nM and the highest concentration of test compound was 1.0×10^-4 M. The competition occurred for two hours after which all wells were washed with a plate washer as before. Affinity purified horseradish peroxidase labeled goat anti-biotin antibody was diluted 1:3000 in TBS^+++ /BSA and 125 μL were added to each well. After 30 minutes, the plates were washed and incubated with […]/H2 O2 substrate in 100 mM/L citrate buffer, pH 5.0. The plate was read with a microtiter plate reader at a wavelength of 450 nm and when the maximum-binding control wells reached an absorbance of about 1.0, the final A450 were recorded for analysis. The data were analyzed using a macro written for use with the EXCEL™ spreadsheet program. The mean, standard deviation, and % CV were determined for duplicate concentrations. The mean A450 values were normalized to the mean of four maximum-binding controls (no competitor added) (B-MAX). The normalized values were subjected to a four parameter curve fit algorithm, [Robard et al., Int.

[3] = inhibition of binding of biotinylated human vitronectin (1 nM) to purified receptor, Table I, read-out: AvB3 IC50

T1 sequence (P06756 31-889 limits assumed): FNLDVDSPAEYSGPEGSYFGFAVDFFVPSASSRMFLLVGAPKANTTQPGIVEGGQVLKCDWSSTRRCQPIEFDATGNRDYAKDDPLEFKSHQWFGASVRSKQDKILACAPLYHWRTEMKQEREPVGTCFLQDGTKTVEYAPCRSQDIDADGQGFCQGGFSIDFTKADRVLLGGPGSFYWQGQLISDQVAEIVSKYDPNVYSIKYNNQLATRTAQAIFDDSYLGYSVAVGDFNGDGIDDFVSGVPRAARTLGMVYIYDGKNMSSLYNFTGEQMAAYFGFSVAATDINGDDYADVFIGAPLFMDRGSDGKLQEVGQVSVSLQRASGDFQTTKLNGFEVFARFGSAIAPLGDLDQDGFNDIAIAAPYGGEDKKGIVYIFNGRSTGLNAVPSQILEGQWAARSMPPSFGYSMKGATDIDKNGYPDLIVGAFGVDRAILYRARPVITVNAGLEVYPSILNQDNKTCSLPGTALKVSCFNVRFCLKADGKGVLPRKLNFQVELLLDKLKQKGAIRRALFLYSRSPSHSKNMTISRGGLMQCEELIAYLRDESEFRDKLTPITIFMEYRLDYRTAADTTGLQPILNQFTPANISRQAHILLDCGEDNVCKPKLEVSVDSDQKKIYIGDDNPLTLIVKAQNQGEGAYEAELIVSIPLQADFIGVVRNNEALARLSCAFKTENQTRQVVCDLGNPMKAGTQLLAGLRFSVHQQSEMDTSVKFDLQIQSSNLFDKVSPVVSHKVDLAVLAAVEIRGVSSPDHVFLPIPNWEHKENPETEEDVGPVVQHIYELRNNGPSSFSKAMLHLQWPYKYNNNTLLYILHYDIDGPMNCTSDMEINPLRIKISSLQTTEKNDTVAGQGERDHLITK
T1 sequence (P06756 891-1048 limits assumed): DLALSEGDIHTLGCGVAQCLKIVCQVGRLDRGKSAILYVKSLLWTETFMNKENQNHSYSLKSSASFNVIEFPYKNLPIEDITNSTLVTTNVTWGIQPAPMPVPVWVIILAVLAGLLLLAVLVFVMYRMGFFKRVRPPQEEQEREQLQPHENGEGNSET
T1 sequence (P05106 27-788): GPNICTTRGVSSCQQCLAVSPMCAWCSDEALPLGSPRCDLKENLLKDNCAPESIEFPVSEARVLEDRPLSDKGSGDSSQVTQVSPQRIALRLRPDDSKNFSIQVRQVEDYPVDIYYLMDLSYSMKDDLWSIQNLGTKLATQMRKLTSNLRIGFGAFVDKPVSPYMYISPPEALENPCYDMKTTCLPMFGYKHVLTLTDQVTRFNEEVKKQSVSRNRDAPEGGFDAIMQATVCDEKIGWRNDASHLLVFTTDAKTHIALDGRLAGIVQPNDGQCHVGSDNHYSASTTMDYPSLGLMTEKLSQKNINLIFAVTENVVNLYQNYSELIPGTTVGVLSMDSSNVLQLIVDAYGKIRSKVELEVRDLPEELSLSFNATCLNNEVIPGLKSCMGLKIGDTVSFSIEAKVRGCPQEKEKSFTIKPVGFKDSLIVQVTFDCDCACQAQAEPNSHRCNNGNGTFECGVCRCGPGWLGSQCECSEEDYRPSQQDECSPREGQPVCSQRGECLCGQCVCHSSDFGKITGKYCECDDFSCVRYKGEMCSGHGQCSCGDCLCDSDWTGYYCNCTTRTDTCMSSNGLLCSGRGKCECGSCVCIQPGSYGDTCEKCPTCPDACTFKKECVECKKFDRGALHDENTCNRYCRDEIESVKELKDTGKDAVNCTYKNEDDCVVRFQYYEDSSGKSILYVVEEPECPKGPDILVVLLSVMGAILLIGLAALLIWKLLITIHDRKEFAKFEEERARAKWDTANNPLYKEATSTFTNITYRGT
T2 sequence (P08514 32-887 limits assumed): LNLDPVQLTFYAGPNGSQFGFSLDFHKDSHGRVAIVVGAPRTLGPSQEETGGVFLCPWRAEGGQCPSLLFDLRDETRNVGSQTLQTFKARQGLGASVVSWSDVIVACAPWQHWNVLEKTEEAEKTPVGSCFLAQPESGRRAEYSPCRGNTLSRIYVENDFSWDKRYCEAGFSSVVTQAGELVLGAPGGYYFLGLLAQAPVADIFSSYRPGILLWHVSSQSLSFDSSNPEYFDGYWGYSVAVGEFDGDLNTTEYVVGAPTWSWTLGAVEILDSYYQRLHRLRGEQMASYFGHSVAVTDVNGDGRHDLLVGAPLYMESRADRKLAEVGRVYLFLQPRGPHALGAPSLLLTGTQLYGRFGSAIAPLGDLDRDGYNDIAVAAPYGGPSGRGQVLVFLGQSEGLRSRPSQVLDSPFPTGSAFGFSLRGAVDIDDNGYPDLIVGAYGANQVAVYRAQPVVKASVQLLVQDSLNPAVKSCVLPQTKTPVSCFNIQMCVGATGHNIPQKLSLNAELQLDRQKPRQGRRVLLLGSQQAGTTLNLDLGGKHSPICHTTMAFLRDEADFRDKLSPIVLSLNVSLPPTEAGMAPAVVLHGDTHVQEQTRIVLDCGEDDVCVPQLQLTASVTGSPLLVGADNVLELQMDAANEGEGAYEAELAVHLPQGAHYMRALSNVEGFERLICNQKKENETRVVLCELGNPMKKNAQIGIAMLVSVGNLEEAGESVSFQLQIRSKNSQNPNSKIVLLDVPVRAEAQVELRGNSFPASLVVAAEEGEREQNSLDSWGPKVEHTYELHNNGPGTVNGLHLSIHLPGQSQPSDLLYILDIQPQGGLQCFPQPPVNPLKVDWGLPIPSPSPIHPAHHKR
T2 sequence (P08514 891-1039 limits assumed): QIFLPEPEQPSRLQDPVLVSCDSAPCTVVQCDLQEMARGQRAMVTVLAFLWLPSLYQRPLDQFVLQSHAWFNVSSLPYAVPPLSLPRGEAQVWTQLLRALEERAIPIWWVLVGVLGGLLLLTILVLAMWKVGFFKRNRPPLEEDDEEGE
T2 sequence (P05106 27-788): as the sequence (P05106 27-788) above

Structure (SMILES)	pIC50 [1, 3]	pIC50 [2]	pIC50 ([1]; positive control included on each plate, read-out: αv β3 antagonist IC50 of positive control)
N=C(N)Nc1cccc(C(O)CCc2cccc(/C=C/C(=O)O)c2)c1 (racemic) [Example 96, 3-[3-[3-[3-[(aminoiminomethyl)amino]phenyl]-3-hydroxypropyl]phenyl]propenoic acid, trifluoroacetate salt]	6.68	4.81	
N=C(N)Nc1cccc(C(=O)Nc2ccc(C(=CC(=O)O)c3ccccc3)cc2)c1 (single isomer, unassigned) [Example 58, 3-[4-[[[3-[(aminoiminomethyl)amino]phenyl]-carbonyl]amino]phenyl]-3-phenylpropenoic acid, trifluoroacetate salt]	7.10	5.64	
COC(=O)/C=C/c1cccc(CNC(=O)c2cccc(NC(=N)N)c2)c1 [Example 1, methyl 3-[3-[[[[3-[(aminoiminomethyl)-amino]phenyl]carbonyl]amino]methyl]phenyl]-2-propenoate, trifluoroacetate salt]	4.80	< 4.00	
N=C(N)Nc1cccc(C(=O)NCc2cccc(/C=C/C(=O)O)c2)c1 [Example 2, 3-[3-[[[[3-[(aminoiminomethyl)amino]phenyl]carbonyl]amino]methyl]phenyl]-2-propenoic acid, trifluoroacetate salt]	7.89	6.18	
CCOC(=O)/C=C/c1ccc(NC(=O)c2cccc(NC(=N)N)c2)cc1 [Example 3, ethyl 3-[4-[[[3-[(aminoiminomethyl)amino]phenyl]carbonyl]amino]phenyl]-2-propenoate, monohydrate trifluoroacetate salt]	4.54	4.49	
N=C(N)Nc1cccc(C(=O)Nc2ccc(/C=C/C(=O)O)cc2)c1 [Example 4, 3-[4-[[[3-[(aminoiminomethyl)amino]phenyl]carbonyl]amino]phenyl]-2-propenoic acid, trifluoroacetate salt]	7.97	8.15	
Cc1cc(/C=C/C(=O)O)ccc1NC(=O)c1cccc(NC(=N)N)c1 [Example 5, 3-[4-[[[3-[(arainoiminomethyl)amino]phenyl]carbonyl]amino]-3-methylphenyl]propenoic acid, trifluoroacetate salt]	8.40	8.02	
CCc1cc(/C=C/C(=O)O)ccc1NC(=O)c1cccc(NC(=N)N)c1 [Example 7, 3-[4-[[[3-[(aminoiminomethyl)amino]phenyl]carbonyl]amino]-3-ethylphenyl]propenoic acid, trifluoroacetate salt]	8.53	7.82	
N=C(N)Nc1cccc(C(=O)Nc2ccc(/C=C/C(=O)O)cc2Cl)c1 [Example 9, 3-[4-[[[3-[(aminoiminomethyl)amino]phenyl]-carbonyl]amino]3-chlorophenyl]propenoic acid, trifluoroacetate salt]	8.46	7.96	
N=C(N)Nc1cccc(C(=O)Nc2ccc(/C=C/C(=O)O)cc2F)c1 [Example 11, 3-[4-[[[3-[(aminoiminomethyl)aminolphenyl]carbonyl]-amino]-3-fluorophenyl]-2E-propenoic acid, trifluoroacetate salt]	8.15	7.85	
N=C(N)Nc1cccc(C(=O)Nc2ccc(/C=C/C(=O)O)cc2C(F)(F)F)c1 [Example 12, 3-[4-[[[3-[(aminoiminomethyl)amino]phenyl]carbonyl]amino]-3-(trifluoromethyl)phenyl]-2E-propenoic acid, trifluoroacetate salt]	6.81	6.17	
Cc1cc(/C=C/C(=O)O)cc(C)c1NC(=O)c1cccc(NC(=N)N)c1 [Example 13, 3-[4-[[[3-[(aminoiminomethyl)amino]phenyl]carbonyl]-amino]-3,5-dimethylphenyl]-2E-propenoic acid, trifluoroacetate salt]	7.64	5.67	
Cc1cc(/C=C/C(=O)O)cc(Cl)c1NC(=O)c1cccc(NC(=N)N)c1 [Example 15, 3-[4-[[[3-[(aminoiminomethyl)amino]phenyl]carbonyl]-amino]-3-chloro-5-methylphenyl]-2E-propenoic acid, trifluoroacetate salt]	7.54	5.58	
N=C(N)Nc1cccc(C(=O)Nc2ccc(/C=C/C(=O)O)c3ccccc23)c1 [Example 16, 3-[4-[[[3-[(aminoiminomethyl)amino]phenyl]carbonyl]-amino]naphthalen-1-yl]-2E-propenoic acid, trifluoroacetate salt]	7.29	7.60	
Cc1cc(/C=C/C(=O)O)ccc1NC(=O)c1cccc(NC2=NCCCN2)c1 [Example 18, 3-[3-methyl-4-[[[3-[(1,4,5,6-tetrahydropyrimidin-2-yl)amino]phenyl]carbonyl]amino]phenyl]propenoic acid, trifluoroacetate salt]	9.34	6.74	
N=C(N)Nc1cccc(C(=O)Nc2ccc(/C=C/C(=O)O)c(Cl)c2)c1 [Example 28, 3-[4-[[[3-[(aminoiminomethyl)amino]phenyl]carbonyl]-amino]-2-chlorophenyl]propenoic acid, trifluoroacetate salt]	7.63		
N=C(N)NCCCCC(=O)NCC(=O)NC(CC(=O)O)c1cccnc1 (stereo not drawn) [β-[[2-[[5-[(aminoiminomethyl)amino]-1-oxopentyl]amino]-1-oxoethyl]amino]-3-pyridinepropanoic acid]			8.00 to 8.52
